The values below come from patent US4272540A, “14-Methoxymorphinan-6-one compounds and therapeutic methods of treating pain and drug dependence with them” (SISA, Incorporated, priority 1979, dated 1981).

For assay [1], the system named is mice. Description: Test A: acetic acid mouse writhing test (analgesic effects). The note with it: for ED50: Mus musculus, sc. It is filed as in vivo, male CD-1 mice. How it is done:
(A) Analgesic effects upon mice (acetic acid writhing test).
(§1) The analgesic effects of test compounds were determined in mice by use of the acetic acid writhing test described by B. J. R. Whittle, Brit. J. Pharmacol., 22:296 (1964). In this test at least three groups of five male CD-1 mice each were given subcutaneous doses of the test drug dissolved in either distilled water or distilled water acidified with HCl depending on the solubility of the compound. In all cases, 0.4 milliliter of a 0.5% V/V acetic acid in distilled water solution was administered intraperitoneally 15 minutes post drug. The number of writhes in a 20 minute interval beginning 5 minutes after the acetic acid injection were determined and compared with the number of writes in control groups which had received only acetic acid.
Percent inhibition of writhing was calculated as: [formula]
(§2) The ED50 dose, i.e., the dose required to reduce the number of writhes by 50%, was determined graphically from a plot of % inhibition as a probit versus log dose. Confidence limits of 95% were calculated on the basis of those results falling in the range 16-84% inhibition. See Litchfield, J. T. and Wilcoxon, F., J. Pharmacol. Exp. Ther., 96, 99-113, (1949).
(§3) The results of these experiments are set out in Table I where R, R1 and R2 refer to the proceeding general formula for the compounds of the present invention. In the column under R2 CBM stands for cyclobutylmethyl, CPM for cyclopropylmethyl, THF for tetrahydrofurfuryl and DMA for dimethylallyl.

Assay [2] concerns rats. Description: Test B: narcotic antagonist activity (modified rat tail flick test, morphine antagonism). It counts as in vivo, male albino Wistar rats. The arrangement: key to AD50 (Test B): inactive at dose stated: IA is intended to mean "inactive". The note with it: for ED50: Rattus norvegicus; for AD50 (Test B): inactive at dose stated: at 10 mg/kg, interperitoneally. The method, then: (B) Narcotic antagonist activity in rats (modified rat tail flick test).
The narcotic antagonist effects of test compounds were determined by a modification of the rat tail flick procedure of Harris and Pierson (J. Pharmacol. Exp. Ther. 143:141[1964]).
(§4) Male albino Wistar rats (100-120 g) were used for this study. A rat's tail is so placed so as to cover a photocell. Heat is applied by a lamp in a reflector with a timer being connected to the lamp and photocell so that the timer goes on when the light is turned on and is turned off when the photocell is uncovered. A rheostat, incorporated into a heating lamp is used to adjust the intensity of the light falling on the tail of the rat such that the rat's control reaction time is from two to four seconds. Animals with a control reaction time outside this range are rejected. The rheostat adjustment is made only if a significant proportion (more than 2 out of every 10 rats) of the reaction times are outside the range of two to four seconds. Groups of five rats were used each time, and two control times were determined at 60 and 30 minutes prior to subcutaneous injection of the drug.
(§5) Thirty minutes after the last control run the test drug was given interperitoneally. This was followed ten minutes later by an ED80 dose of morphine subcutaneously. The animals were retested at 20 minutes after the morphine injection. Control animals were given vehicle and morphine only. The data were calculated as follows: [formula]
(§6) The data were plotted on log-probit paper and AD50 values, i.e., the dose required to inhibit the morphine effect by 50% within 95% condidence limits, were determined by the method of Litchfield and Wilcoxon.
as §3
(In hot-plate and tail-flick tests a longer latency is read as antinociception.)

Assay [3] in a line: Overall agonist/antagonist classification from Table I (Tests A and B). It counts as in vivo, mice (Test A); rats (Test B). The note with it: from ED50 and AD50 values of Table I. How it is done:
as §1, §2, §4, §5, §6

The conditions of assay [4]: prior art report; cited from earlier work.
Where [5] appears, read: sc, rats, tail flick, drug interperitoneally 10 min before ED80 morphine s.c., dose inhibiting morphine effect by 50%, read-out: AD50 (Test B, narcotic antagonist activity).
Setting [6] is: subcutaneous, 15 min before acetic acid, dose reducing writhes by 50%, read-out: ED50 (Test A, acetic acid mouse writhing test).
[7] abbreviates: rats, tail flick, drug interperitoneally 10 min before ED80 morphine s.c., dose inhibiting morphine effect by 50%.

Where a name gives a salt, the structure may show the parent alone. Read-outs that look alike come from different tables or passages of the source.

As to `COc1ccc2c(c1)[C@]13CCN(CC4CC4)[C@H](C2)[C@]1(OC)[C@@H](C)CC(=O)C3.Cl` [TR-5209, 17-Cyclopropylmethyl-3,14-dimethoxy-8β-methylmorphinan-6-one Hydrochloride], the “ED50 (Test A): inactive at dose stated” value in assay [1] (at 13 mg/kg, subcutaneous) was “IA (IA is intended to mean "inactive")”. Moreover, the ED50 in assay [2] (setting [5]) came to 0.45 mg/kg. Also, the agonist/antagonist profile entry in assay [3] is “pure narcotic antagonists”.

Turning to `CO[C@@]12[C@@H](C)CC(=O)C[C@@]13CCN(CC1CC1)[C@@H]2Cc1ccc(O)cc13.Cl` [TR-5210, 17-Cyclopropylmethyl-3-hydroxy-14-methoxy-8β-methylmorphinan-6-one Hydrochloride], the ED50 in assay [1] (setting [6]) was 30 mg/kg; in assay [2] (rats, tail flick vs morphine, unit inferred, read-out: AD50 (the source's name)) it was 0.004 mg/kg; in assay [2] (setting [5]), 0.004 mg/kg. Also, the “potency as narcotic antagonist relative to naloxone” value in assay [2] (naloxone as comparator) stood at 10 times. Moreover, the agonist/antagonist profile entry in assay [3] (Hydrochloride) is recorded as “pure narcotic antagonist”.

As to `COc1ccc2c(c1)[C@]13CCN(CC4CCC4)[C@H](C2)[C@]1(OC)[C@@H](C)CC(=O)C3.Cl` [TR-5211, 17-Cyclobutylmethyl-3,14-dimethoxy-8β-methylmorphinan-6-one Hydrochloride], the “ED50 (Test A): inactive at dose stated” value in assay [1] (at 10 mg/kg, subcutaneous) is “IA (IA is intended to mean "inactive")”. In addition, the ED50 in assay [2] (setting [5]) amounted to 0.41 mg/kg. In assay [3], the agonist/antagonist profile entry is reported as “pure narcotic antagonists”.

On to `CO[C@@]12[C@@H](C)CC(=O)C[C@@]13CCN(CC1CCC1)[C@@H]2Cc1ccc(O)cc13` [TR-5212, 17-Cyclobutylmethyl-3-hydroxy-14-methoxy-8β-methylmorphinan-6-one Hydrochloride], for which the “ED50 (Test A): inactive at dose stated” value in assay [1] (at 10 mg/kg, subcutaneous) was “IA (IA is intended to mean "inactive")”. In addition, the ED50 in assay [2] (setting [5]) came out at 0.18 mg/kg. Besides, the agonist/antagonist profile result in assay [3] is recorded as “pure narcotic antagonists”.

Take `COc1ccc2c(c1)[C@]13CCN(CC4CCC4)[C@H](C2)[C@]1(OC)[C@H](C)CC(=O)C3.Cl` [TR-5219, 17-Cyclobutylmethyl-3,14-dimethoxy-8α-methylmorphinan-6-one Hydrochloride]: the ED50 was found to be 15.1 mg/kg in assay [1] (setting [6]) and 15.1 mg/kg in assay [1] (writhing, unit inferred, read-out: ED50 value). In assay [1] (writhing), the “analgesic activity (in words)” value was “only a weak analgesic”. Also, the “AD50 (Test B): inactive at dose stated” value in assay [2] (rats, tail flick vs morphine) is recorded as “IA”. Besides, in assay [2] (rats, tail flick vs morphine), the “narcotic antagonist activity (in words)” value is on record as “not a narcotic antagonist”.

Consider `CO[C@@]12[C@H](C)CC(=O)C[C@@]13CCN(CC1CCC1)[C@@H]2Cc1ccc(O)cc13` [TR-5249, 17-Cyclobutylmethyl-3-hydroxy-14-methoxy-8α-methylmorphinan-6-one], for which the figures for the ED50 in assay [1] (setting [6]) and in assay [2] (setting [5]) were 0.14 mg/kg and 3 mg/kg, respectively.

As to `CO[C@@]12[C@@H](C)CC(O)C[C@@]13CCN(CC1CC1)[C@@H]2Cc1ccc(O)cc13` (stereo partly drawn) [TR-5250, 17-Cyclopropylmethyl-14-methoxy-8β-methylmorphinan-3,6-diol Hydrochloride], the “ED50 (Test A): inactive at dose stated” value in assay [1] (at 10 mg/kg, subcutaneous) was “IA (IA is intended to mean "inactive")”. In addition, the ED50 in assay [2] (setting [5]) worked out at 0.32 mg/kg. Moreover, the “less active as narcotic antagonist than TR-5210” value in assay [2] (rats, tail flick vs morphine, compared with TR-5210) was ~2 orders of magnitude.

As to `CO[C@@]12[C@H](C)CC(=O)C[C@@]13CCN(CC1CC1)[C@@H]2Cc1ccc(O)cc13.Cl` [TR-5284, 17-Cyclopropylmethyl-3-hydroxy-14-methoxy 8α-methylmorphinan-6-one Hydrochloride], in assay [1] (at 10 mg/kg, subcutaneous), the “ED50 (Test A): inactive at dose stated” value is “IA (IA is intended to mean "inactive")”. The ED50 in assay [2] (setting [5]) was less than 3 mg/kg. Further, the “narcotic antagonist activity (in words)” value in assay [2] (rats, tail flick vs morphine) is on record as “is a narcotic antagonist”. Moreover, the agonist/antagonist profile result in assay [3] is recorded as “pure narcotic antagonists”.

In the case of `CO[C@@]12[C@H](C)CC(O)C[C@@]13CCN(CC1CC1)[C@@H]2Cc1ccc(O)cc13.Cl` (stereo partly drawn) [TR-5285, 17-Cyclopropylmethyl-14-methoxy-8α-methylmorphinan-3,6-diol Hydrochloride], the ED50 in assay [1] (setting [6]) and in assay [2] (setting [5]) was more than 10 mg/kg each time. The agonist/antagonist profile entry in assay [3] is “not active as an analgesic or a narcotic antagonist”.

`COc1ccc2c(c1)[C@]13CCN(CC4CCC4)[C@H](C2)[C@]1(OC)CCC(=O)C3` [TR-5296, 17-Cyclobutylmethyl-3,14-dimethoxymorphinan-6-one Hydrochloride]: in assay [1] (setting [6]), the ED50 was found to be 0.77 mg/kg. Also, the “AD50 (Test B): inactive at dose stated” value in assay [2] (rats, tail flick vs morphine) amounted to 1A. Further, the agonist/antagonist profile entry in assay [3] is on record as “pure analgesics”.

For `COc1ccc2c(c1)[C@]13CCN(CC4CC4)[C@H](C2)[C@]1(OC)CCC(=O)C3` [TR-5305, 17-Cyclopropylmethyl-3,14-dimethoxymorphinan-6-one], in assay [1] (setting [6]), the ED50 was 0.98 mg/kg. The “AD50 (Test B, narcotic antagonist activity)” value in assay [2] (setting [7]) worked out at 1.60 mg/kg. For the same compound, in assay [3], the agonist/antagonist profile entry was “mixed analgesic (agonist) and narcotic antagonist activity”.

Turning to `CO[C@@]12CCC(=O)C[C@@]13CCN(CC1CCC1)[C@@H]2Cc1ccc(O)cc13` [TR-5306, 17-Cyclobutylmethyl-3-hydroxy-14-methoxymorphinan-6-one Hydrochloride], the ED50 in assay [1] (setting [6]) was 0.007 mg/kg. Besides, in assay [2] (rats, tail flick vs morphine), the “AD50 (Test B): inactive at dose stated” value was “IA”. Further, the agonist/antagonist profile entry in assay [3] is reported as “pure analgesics”.

Regarding `CO[C@@]12[C@H](C)CC(=O)C[C@@]13CCN(CC=C(C)C)[C@@H]2Cc1ccc(O)cc13.Cl` [TR-5310, 17-Dimethylallyl-3-hydroxy-14-methoxy-8α-methylmorphinan-6-one Hydrochloride], the ED50 in assay [1] (setting [6]) was 0.18 mg/kg. Besides, the “AD50 (Test B): inactive at dose stated” value in assay [2] (rats, tail flick vs morphine) is “IA”. Also, the agonist/antagonist profile result in assay [3] is “pure analgesics”.

Consider `CO[C@@]12CCC(=O)C[C@@]13CCN(CC1CC1)[C@@H]2Cc1ccc(O)cc13.Cl` [TR-5325, 17-Cyclopropylmethyl-3-hydroxy-14-methoxymorphinan-6-one Hydrochloride], for which the ED50 in assay [1] (setting [6]) came out at 0.45 mg/kg; in assay [2] (setting [5]), 0.35 mg/kg. For the same compound, in assay [3] (Hydrochloride), the agonist/antagonist profile result is “mixed analgesic (agonist) and narcotic antagonist activity”.

Consider `COc1ccc2c(c1)[C@]13CCN(CC4CCCO4)[C@H](C2)[C@]1(OC)CCC(=O)C3.Cl` (stereo partly shown) [TR-5326, 3,14-Dimethoxy-17-tetrahydrofurfurylmorphinan-6-one Hydrochloride], for which the ED50 in assay [1] (setting [6]) stood at 0.16 mg/kg. Besides, the “AD50 (Test B): inactive at dose stated” value in assay [2] (rats, tail flick vs morphine) is “IA”. Further, in assay [3], the agonist/antagonist profile result is on record as “pure analgesics”.

With `COc1ccc2c(c1)[C@]13CCN(CC4CCCO4)[C@H](C2)[C@]1(OC)[C@H](C)CC(=O)C3.Cl` (stereo partly drawn) [TR-5327, 17-Tetrahydrofurfuryl-3,14-dimethoxy-8α-methylmorphinan-6-one Hydrochloride], the ED50 in assay [1] (setting [6]) amounted to 1.85 mg/kg. In assay [2] (rats, tail flick vs morphine), the “AD50 (Test B): inactive at dose stated” value is recorded as “IA”. Besides, the agonist/antagonist profile entry in assay [3] is on record as “pure analgesics”.

For `CO[C@@]12CCC(=O)C[C@@]13CCN(CC1CCCO1)[C@@H]2Cc1ccc(O)cc13` (stereo partly shown) [TR-5340, 3-Hydroxy-14-methoxy-17-tetrahydrofurfurylmorphinan-6-one], in assay [1] (setting [6]), the ED50 worked out at 0.03 mg/kg. In assay [2] (rats, tail flick vs morphine), the “AD50 (Test B): inactive at dose stated” value was “IA”. In addition, in assay [3], the agonist/antagonist profile result was “pure analgesics”.

In the case of `COc1ccc2c(c1)[C@]13CCN(CC4CC4)[C@H](C2)[C@]1(OC)CCC(=O)C3` [TR-5400, 17-Cyclopropylmethyl-3,14-dimethoxymorphinan-6-one], the “ED50 (Test A, acetic acid mouse writhing test)” value in assay [1] (subcutaneous, 15 min before acetic acid, dose reducing writhes by 50%) amounted to 0.89 mg/kg. Also, the “AD50 (Test B, narcotic antagonist activity)” value in assay [2] (setting [7]) is given as 0.64 mg/kg.

Take `C[C@H]1[C@H]2Cc3ccc(O)cc3[C@]1(C)CCN2CC1CC1` [cyclazocine]: in assay [4], the “analgesic / narcotic antagonist activity (literature)” value is listed as “mixed analgesic/narcotic antagonist activity”.
